Patent US11401243B2, “Quinoline derived small molecule inhibitors of nicotinamide N-methyltransferase (NNMT) and uses thereof” (priority 2017, dated 2022)
Entries after “also recorded” stand apart in the source; their conditions may differ. Read-outs that look alike come from different tables or passages of the source.

Key:
[1] = Parallel artificial membrane permeability assay (PAMPA); type: in vitro ADME; conditions: for Papp at 4 h, 400 μM: 400 μM in PBS, room temperature, read-out: Flux; for Permeability Classification (passive transport): BCS classification
Procedure: Samples were tested in triplicates in three separate experiments.

[2] = tested on: NNMT activity in 3T3-L1 pre-adipocytes and differentiated adipocytes; test: Quantitative measurement of NNMT reaction product 1-MNA in cultured cells (LC/MS/MS); type: cell-based; conditions: 10 μM, 24 h
Procedure: Differentiation of 3T3-L1 pre-adipocytes. […] Briefly, standard culture media was supplemented with scheduled addition of adipogenic agents [3-isobutyl-1methyl xanthine (IBMX), Sigma Aldrich; MO, USA), dexamethasone (Sigma Aldrich; MO, USA), insulin (Gibco Life Technologies Inc.; Grand Island, N.Y., USA)] over 10 days to promote differentiation of 3T3-L1 fibroblasts into adipocytes; a combination of 1 mM IBMX, 1 μM dexamethasone, and 10 μg/ml of insulin in media were added to fully confluent 3T3-L1 fibroblasts for three days (days 0-3) to initiate differentiation. At day 3, the media was replaced with culture media supplemented with insulin (10 μg/ml). After day 6, cells were maintained in culture media until described experiments were begun (days 8-10).
Cellular 1-MNA concentrations were determined using an ultra-sensitive high-resolution AB Sciex 6500 Q-trap mass spectrometer coupled to an Agilent 1260 ultra-high pressure liquid chromatography (LC/MS/MS) system. Using multiple reaction monitoring (MRM) positive ion mode, the 1-MNA NNMT reaction product was quantified from peak area ratios using AB Sciex Analyst and MultiQuant 2.1 software and the parent precursor and Q3 masses set to m/z 137.1 and 94.1, respectively. Fragment ions at m/z of 92.1 and 77.9 were additionally used for the detection and confirmation of 1-MNA, respectively. […]. To determine the effect of NNMT inhibitor on NNMT activity in the pre-adipocytes and differentiated adipocytes (8×10^4 cells/well seeded prior to beginning differentiation), cells were treated with 30 μM inhibitor for 24 h. Similarly, to compare the relative effects of multiple NNMT inhibitors on NNMT activity in cultured adipocytes, differentiated adipocytes in 6-well plates were treated with 10 μM test compound for 24 h. Following treatment, media was replaced with 80% (v/v) methanol (cooled to −80° C.) containing 500 nmol 6-chloronicotinamide (6-CN) as an internal standard (IS) to extract cellular metabolites. Adherent cells were scrapped, then centrifuged at 4° C. and 13000 g for 15 min, and the resulting supernatants processed using established protocols. […]. Data were subsequently normalized to the IS peak area and transformed as % control values for cross-sample comparisons. […] Choice of inhibitor concentrations and time period was chosen based on the results from the MTT studies.

human NNMT (mt-hNNMT) [3] = biological target: T1, human NNMT (mt-hNNMT) (Homo sapiens, UniProt P40261, E101A/E103A/K100A); conditions: values from applicant's published SAR study; read-out: IC50 (NNMT inhibition); cited from earlier work
T1 sequence (P40261 1-261 K100A/E101A/E103A limits assumed): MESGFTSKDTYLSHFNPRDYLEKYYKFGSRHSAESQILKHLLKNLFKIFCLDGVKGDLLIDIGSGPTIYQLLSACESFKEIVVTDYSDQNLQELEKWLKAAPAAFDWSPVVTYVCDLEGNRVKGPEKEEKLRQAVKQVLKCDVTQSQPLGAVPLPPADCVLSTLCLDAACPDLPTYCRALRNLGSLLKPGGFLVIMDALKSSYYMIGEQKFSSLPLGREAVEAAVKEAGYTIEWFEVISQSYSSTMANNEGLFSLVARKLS

[4] = biological target: recombinant human DNMT1 enzyme (Homo sapiens, UniProt P26358); test: DNMT1 activity assay (radiometric); type: biochemical
[5] = biological target: recombinant human PRMT3 enzyme (Homo sapiens, UniProt O60678); test: PRMT3 activity assay (radiometric); type: biochemical; conditions: 10 nM to 200 μM (1,8-diMQ) or 600 μM (5-amino-1MQ)
Text: Test compounds were screened in biochemical assays for activity against three structurally similar methyltransferases, including catechol-O-methyltransferase (COMT), DNA (cytosine-5)-methyltransferase 1 (DNMT1), and protein arginine methyltransferase 3 (PRMT3). Additional biochemical assays were used to test the ability of compounds to inhibit nicotinamide phosphoribosyl transferase (NAMPT) and NAD+-dependent protein deacetylase sirtuin 1 (SIRT1), two enzymes in the NAD+ biosynthesis/salvage pathway. All assays were performed by Reaction Biology Corporation (RBC; Malvern, Pa., USA) and complete assay details are noted below. For each test compound, IC50 values were calculated from dose-response curves established with 10 concentrations of a half-log dilution series. For each assay, established enzyme specific inhibitors were included as positive controls for enzyme function and assay reproducibility. IC50 values were determined by non-linear least-squares fitting of a 4-parameter dose-response curve to collected data points (Graphpad Prism 7.0; La Jolla, Calif., USA).
PRMT3 activity assay. […] The analogues, 1,8-diMQ and 5-amino-1MQ were tested at concentrations from 200 μM-10 nM and 600 μM-10 nM, respectively. Reactions were performed with 5 μM histone H3 (histone L-arginine) substrate, 1 μM radiolabeled S-adenosyl-L-[methyl-3H]methionine (SAM) co-substrate, and recombinant human PRMT3 enzyme. Activity was monitored via quantification of radiolabeled reaction product histone [methyl-3H]-L-arginine.

[6] = biological target: T2, recombinant human COMT enzyme (Homo sapiens, UniProt P21964); test: COMT activity assay (radiometric); type: biochemical; conditions: maximal tested concentration 200 μM
T2 construct: Reaction Biology Corporation (ran the assay)
T2 sequence (P21964 1-271): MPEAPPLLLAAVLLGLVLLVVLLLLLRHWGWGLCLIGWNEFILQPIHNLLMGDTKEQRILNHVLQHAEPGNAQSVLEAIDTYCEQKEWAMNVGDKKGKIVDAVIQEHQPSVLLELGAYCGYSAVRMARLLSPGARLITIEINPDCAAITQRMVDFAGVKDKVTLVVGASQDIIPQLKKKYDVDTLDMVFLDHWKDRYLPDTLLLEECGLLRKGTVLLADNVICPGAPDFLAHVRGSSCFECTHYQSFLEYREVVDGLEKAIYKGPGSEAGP

[7] = Bi-directional permeability assay with Caco-2 cells; conditions: human, Caco-2, pH 7.4
Caco-2 cells = test: as above
human NNMT (mt-hNNMT) [8] = biological target: T1, human NNMT (mt-hNNMT); test: NNMT activity assay (HPLC-UV detection of MNA), NNMT IC50 curves; conditions: NNMT Inhibition IC50, mean ± SD of duplicate or triplicate measurements; NI = no observable inhibition

recombinant human DNMT1 enzyme, sequence (P26358 whole entry): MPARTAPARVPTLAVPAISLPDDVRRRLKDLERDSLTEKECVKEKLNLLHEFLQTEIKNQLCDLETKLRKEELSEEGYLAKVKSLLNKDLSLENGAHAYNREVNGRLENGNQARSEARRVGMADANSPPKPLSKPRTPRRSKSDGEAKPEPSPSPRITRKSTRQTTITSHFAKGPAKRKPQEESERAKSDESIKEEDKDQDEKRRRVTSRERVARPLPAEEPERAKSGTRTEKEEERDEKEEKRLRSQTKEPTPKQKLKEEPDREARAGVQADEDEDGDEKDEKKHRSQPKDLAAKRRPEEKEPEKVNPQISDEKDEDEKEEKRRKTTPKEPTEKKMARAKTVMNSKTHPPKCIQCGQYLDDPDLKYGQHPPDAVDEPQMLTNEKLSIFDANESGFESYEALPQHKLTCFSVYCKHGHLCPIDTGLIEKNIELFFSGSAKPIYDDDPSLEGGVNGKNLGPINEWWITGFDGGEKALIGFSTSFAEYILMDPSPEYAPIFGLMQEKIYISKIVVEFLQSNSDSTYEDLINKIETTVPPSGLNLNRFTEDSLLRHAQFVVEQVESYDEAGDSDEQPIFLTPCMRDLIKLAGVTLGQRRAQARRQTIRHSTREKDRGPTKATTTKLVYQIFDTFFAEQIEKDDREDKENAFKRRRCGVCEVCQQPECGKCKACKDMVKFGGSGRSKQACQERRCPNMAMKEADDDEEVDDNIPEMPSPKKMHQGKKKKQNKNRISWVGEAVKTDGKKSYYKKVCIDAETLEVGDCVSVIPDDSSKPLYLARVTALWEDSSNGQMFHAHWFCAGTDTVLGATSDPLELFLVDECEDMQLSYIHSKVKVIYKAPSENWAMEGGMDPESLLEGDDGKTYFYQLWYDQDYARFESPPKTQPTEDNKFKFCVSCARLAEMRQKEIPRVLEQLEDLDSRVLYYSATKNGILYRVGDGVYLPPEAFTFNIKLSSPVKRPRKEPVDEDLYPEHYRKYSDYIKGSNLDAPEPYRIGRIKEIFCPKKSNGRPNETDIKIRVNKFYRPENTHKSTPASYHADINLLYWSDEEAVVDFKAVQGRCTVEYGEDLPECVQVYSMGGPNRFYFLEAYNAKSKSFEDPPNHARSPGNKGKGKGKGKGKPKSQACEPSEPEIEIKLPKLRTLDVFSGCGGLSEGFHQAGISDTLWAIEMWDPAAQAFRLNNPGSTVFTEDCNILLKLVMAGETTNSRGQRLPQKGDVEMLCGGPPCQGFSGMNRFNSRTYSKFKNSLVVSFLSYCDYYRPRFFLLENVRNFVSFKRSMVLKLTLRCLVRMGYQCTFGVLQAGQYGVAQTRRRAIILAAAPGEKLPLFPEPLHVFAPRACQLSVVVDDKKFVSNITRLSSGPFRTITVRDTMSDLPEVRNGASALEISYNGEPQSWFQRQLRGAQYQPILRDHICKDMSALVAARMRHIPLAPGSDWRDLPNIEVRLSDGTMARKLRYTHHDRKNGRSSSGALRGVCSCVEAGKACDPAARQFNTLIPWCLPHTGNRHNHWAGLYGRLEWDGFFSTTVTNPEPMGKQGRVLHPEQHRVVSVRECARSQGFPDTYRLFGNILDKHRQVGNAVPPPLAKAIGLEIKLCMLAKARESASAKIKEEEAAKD
recombinant human PRMT3 enzyme, sequence (O60678 whole entry): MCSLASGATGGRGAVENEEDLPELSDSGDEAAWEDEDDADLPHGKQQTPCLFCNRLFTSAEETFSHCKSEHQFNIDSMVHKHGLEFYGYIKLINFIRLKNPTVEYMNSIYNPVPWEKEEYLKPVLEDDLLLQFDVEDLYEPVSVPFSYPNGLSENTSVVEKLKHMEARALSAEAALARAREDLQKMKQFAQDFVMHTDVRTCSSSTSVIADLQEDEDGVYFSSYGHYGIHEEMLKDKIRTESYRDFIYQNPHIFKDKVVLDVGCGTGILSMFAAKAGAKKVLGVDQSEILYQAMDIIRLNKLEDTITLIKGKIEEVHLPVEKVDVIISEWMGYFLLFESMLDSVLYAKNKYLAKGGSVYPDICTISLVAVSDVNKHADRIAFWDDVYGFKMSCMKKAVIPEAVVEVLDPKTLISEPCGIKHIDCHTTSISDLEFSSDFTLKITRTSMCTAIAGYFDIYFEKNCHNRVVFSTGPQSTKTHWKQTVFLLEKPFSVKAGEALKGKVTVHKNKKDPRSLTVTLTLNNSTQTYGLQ

SMILES | Papp at 4 h, 400 μM [1] [×10⁻⁶ cm/s] | Permeability Classification (passive transport) [1] | 1-MNA levels in differentiated adipocytes relative to control [2] | IC50 (human NNMT (mt-hNNMT) [3]) [µM] | Permeability Classification (passive transport) ([1]; listed as 1,8-diMQ) | inhibition of DNMT1 (in words) ([4]; 10 nM to 200 μM (1,8-diMQ) or 600 μM (5-amino-1MQ)) | IC50 ([4]; read-out: IC50, DNA (cytosine-5)-methyltransferase 1, NI: no inhibition) [µM] | inhibition of PRMT3 (in words) [5] | inhibition at 200 µM [6] [%] | Papp B→A at 2 h, 10 μM [7] [×10⁻⁶ cm/s] | Mean A→B Papp (Caco-2 cells; Caco-2, 10 μM, 2 h, pH 7.4, BLQ = no peak detected in receiver side) | Classification (active transport / efflux) (Caco-2 cells; Caco-2, listed as 1,8-diMQ) | IC50 (human NNMT (mt-hNNMT) [8]) [µM]
Cc1cc(C)[n+](C)c2c(C)cccc12 [1,2,4,8-tetraMQ] | 0.698 | low, but non-zero, permeability; also recorded: Low permeability | did not significantly decrease | 109 |  |  |  |  |  |  |  |  | 
Cc1cccc2ccc[n+](C)c12 [1q] | 0.864 |  |  |  | low, but non-zero, permeability; also recorded: Low permeability | did not inhibit | > 200 | did not inhibit | 20 | 1.78 | BLQ | very low bi-directional transport; also recorded: Low permeability | 1.8 ± 0.5
